In patent publication US12691105B2, “Compositions containing nicotinamide and vitamin B6 and methods of using such compositions for treating cachexia or precachexia” (SOCIETE DES PRODUITS NESTLE S.A., priority 2020, dated 2026):

Tests used:
[1] = test system: PC-3 cell line (prostate adenocarcinoma); test: Safety of compounds as non-oncogenic: cancer cell proliferation, PC-3; format: cell-based, human; details: FIG. 7A, serum and FGF positive controls
Experimental: (§1) The safety of the compounds was tested in two different human cancer cell lines purchased from ATCC. FIG. 7A cell line PC-3 was of prostate/adenocarcinoma from a person, and FIG. 7B cell line PANC-1 was from a pancreatic duct epitheloid carcinoma from a person. Serum and FGF (Fibroblast Growth Factor) conditions were used as positive controls. *, **, ***, **** indicates difference from the control, One-way ANOVA, with p<0.05, p<0.01, p<0.001, p<0.0001, respectively. Data are presented as Mean+/−SEM.
(§2) The safety of the compounds were tested in two different human cancer cell lines purchased from ATCC. Serum and FGF (Fibroblast Growth Factor) conditions were used as positive controls. *, **, ***, **** indicates difference from the control, One-way ANOVA, with p<0.05, p<0.01, p<0.001, p<0.0001, respectively. Data are presented as Mean+/−SEM.
Cell line PC-3 of prostate/adenocarcinoma from a person (FIG. 7A)

[2] = test system: PANC-1 cell line (pancreatic duct epitheloid carcinoma); test: Safety of compounds as non-oncogenic: cancer cell proliferation, PANC-1; format: cell-based, human; details: FIG. 7B, serum and FGF positive controls
Experimental: as §1, §2
Cell line PANC-1 was from a pancreatic duct epitheloid carcinoma from a person (FIG. 7B).

Human primary myoblasts = test: Myogenic amplification and commitment of muscle stem cells (Pax7/MyoD staining); format: cell-based; details: dose response, donors 1 and 2 pooled, 96 hours, control DMSO 1%; for proportion of MyoD+ cells (normalized to total cell number, fold change compared to control): FIG. 1B/2B
Experimental: Human Skeletal Muscle Myoblasts were purchased from Lonza (https://bioscience.lonza.com). These cells were isolated from the upper arm or leg muscle tissue of normal donors and used after the second passage. Several donors were tested to ensure cell viability and purity before selecting the final donors, which are a person (refer thereafter as Donor 1), a person (refer thereafter as Donor 2) and a person (refer thereafter as Donor 3). Human primary myoblasts were seeded in 384 well plates at a density of 1′000 cells per well in skeletal muscle growth medium (SKM-M, AMSbio). For treatment, compounds were directly added to the myoblast cultures 16 hours after initial plating. All cultures were then grown for 96 hours. Cells were stained for Pax7 and MyoD expression using antibodies directed against Pax7 and MyoD and counterstained with Hoechst 33342 to visualize cell nuclei. Pax7+ cells are defined as cells that express Pax7 regardless of MyoD expression. […] Image acquisition was performed using the ImageXpress (Molecular Devices) platform. Custom module analysis based on Multi-Wavelength Cell Scoring of the MetaXpress software was used for quantification. *, **, ***, **** indicates difference from the control, One-way ANOVA, with p<0.05, p<0.01, p<0.001, p<0.0001, respectively. Data are presented as Mean+/−SEM Human primary myoblasts from different donors (donor 1, donor 2 or donor 3) were seeded in 384 well plates at a density of 1′000 cells per well in skeletal muscle growth medium (SKM-M, AMSbio). For treatment, compounds were directly added to the myoblast cultures 16 hours after initial plating. All cultures were then grown for 96 hours. Cells were stained for Pax7 and MyoD expression using antibodies directed against Pax7 and MyoD and counterstained with Hoechst 33342 to visualize cell nuclei. Pax7+ cells are defined as cells that express Pax7 regardless of MyoD expression. […] Custom module analysis based on Multi-Wavelength Cell Scoring of the MetaXpress software was used for quantification. […] Data are expressed as number of cells per arear of injured muscle.

Row | SMILES | proliferation of cancer cells [1] | proliferation of cancer cells [2] | proportion of Pax7+ cells (normalized to total cell number, fold change compared to control) (Human primary myoblasts; FIG. 1A) | proportion of MyoD+ cells (normalized to total cell number, fold change compared to control) (Human primary myoblasts)
1 | NC(=O)c1cccnc1 [Nicotinamide] | no effect on the proliferation of cancer cells | no effect on the proliferation of cancer cells | increasing the proportion of both amplifying (Pax7+) and differentiating (MyoD+) cells in a dose dependent manner | increasing the proportion of both amplifying (Pax7+) and differentiating (MyoD+) cells in a dose dependent manner
2 | Cc1ncc(CO)c(CO)c1O [Pyridoxine] | no effect on the proliferation of cancer cells | no effect on the proliferation of cancer cells | – | increasing the proportion of differentiating (MyoD+) cells in a dose dependent manner
